Where a name gives a salt, the structure may show the parent alone.
Experiments:
[1] = system: Acadm and Acadl gene expression; assay: RT-PCR of Acadm and Acadl in E7.5 embryos and E15.5 hearts; assay type: in vivo, mouse; details: for Acadm expression: E15.5 hearts, versus control hearts
Description: The gene expression data were validated by RT-PCR in mouse embryos at both E 7.5 (a half day after exposure) and at E15.5 and by in situ hybridization for tissue localization analyses. The inventors chose E 7.5 to determine early gestational changes in gene expression and to define whether these expression changes were maintained during pregnancy to E 15.5. Digoxigenin labeled probes and alkaline phosphatase secondary antibody detection for in situ hybridization were used (Roche, Inc., Indianapolis, Ind.).

[2] = system: chick embryos; assay: Early embryonic chick culture: heart development (MF20) after HCy, Li or Wnt3A exposure, FA/inositol rescue; assay type: in vivo, chick (Gallus gallus); details: for % Normal Hearts / Abnormal (number of embryos) / Normal (number of embryos): HCy 50 μM, FA 10 μM
Procedure: Pathogen-free White Leghorn chick (Gallus gallus; Charles River, Mass.) and quail (Coturnix coturnix japonica; Strickland Farms, Ga.) embryos were used to analyze the effects of HCy on early embryogenesis. The early processes of heart development are well conserved among vertebrates and the avian model allows for more precise timing of exposure in early embryos. The incubation methodology using agarose-albumin has been described previously (Darnell and Schoenwolf, 2000). Briefly, the experimental paradigm involved exposing specific early stages of chick embryos, at HH stages 4 to 7 (Hamburger and Hamilton, 1951), to different concentrations of HCy (L-homocysteine thiolactone hydrochloride, Sigma) made up in physiological saline. Final concentrations of HCy included 30 μM, 50 μM, 75 μM and 100 μM. The minimal teratogenic dose was determined empirically to be 50 μM. This fit within the concentration range of 30 μM to 300 μM used by others that induced heart defects at later stages of development (Boot et al., 2004). Control embryos were incubated using the vehicle, physiological saline, in the agarose-albumin medium. Control and experimental cultures were incubated on the agarose-albumin plates for either 8 or 24 hours.
Carrier-free, recombinant mouse Wnt3A was purchased from R&D Systems (Minneapolis, Minn.). Wnt3A concentrations were empirically tested to find those that would induce cardiac defects but maintain embryonic viability. Wnt3A was tested at concentrations of 2 ng, 10 ng, 20 ng, 50 ng and 100 ng per ml. Concentrations of 2 ng/ml and 10 ng/ml were both effective in inducing cardiac defects. Both Wnt3A concentrations were used in the FA rescue experiments, as described. For the FA rescue experiments, folate (folic acid, Sigma-Aldrich) was added at a concentration of 2 μg, 5 μg or 10 μg per ml. […] For the experiments using inositol (myo-inositol, Sigma) supplementation, a concentration of 50 mg/ml was used.
The main embryonic defects related to the timing of embryonic exposure; the regions that were primarily affected related to an anterior-to posterior (AP) wave of development along this embryonic axis. The exposure effects ranged from early effects (e.g. no cardiac tissue, heart development occurring anterior to neural tissue, cardiabifida) to later effects, such as wide hearts and left looping (Table 1). The cardiac phenotypes observed with early HCy exposure were similar, although not identical, to those obtained from previous studies of Li exposure on avian heart development (Manisastry et al., 2006). The Wnt/β-catenin modulated genes Hex and Isl1 in the chick embryo also were similarly repressed with HCy, as with Li in the chick cardiogenic region. […] Investigation of regulatory gene activity in chick embryos indicates Li, HCy and Wnt3A suppress Wnt-modulated genes Hex and Islet-1 in the heart fields.
To define the effective dose of Wnt3A needed to induce cardiac dysmorphogenesis, Wnt3A was tested at concentrations of 2 ng, 10 ng, 20 ng, 50 ng, and 100 ng per ml. The minimal effective doses of Wnt3A that induced cardiac and neural anomalies were 2 ng/ml and 10 ng/ml, respectively. Using these concentrations, the inventors analyzed whether FA supplementation of media at 10^3-fold higher concentrations, that is 2 μg/ml or 10 μg/ml, would provide protection against the augmentation of canonical Wnt3A signaling.

[3] = system: neutral lipid droplets in heart and placenta; assay: Oil Red O staining of neutral lipid droplets in E15.5 heart and placenta; assay type: in vivo, mouse; details: for ORO neutral lipid localization in the placenta: labyrinth and maternal decidua
Description: Oil Red O (ORO), a fat soluble dye, was used to detect neutral lipids (triglycerides, diacylglycerols, and cholesterol esters) in cryosectioned E15.5 cardiac and placental tissues. The staining methodology was followed as published. This method estimates tissue lipid content and localization (Mehlem et al., 2013). Lipid droplets stain red and nuclei blue. Polar lipids (phospholipids, sphingolipids and ceramides) are not stained (Fowler and Greenspan, 1985).

[4] = HH stage 3 +/4, Li 50 μM, inositol 280 mM
[5] = 50 μM HCy, early embryonic chick model
[6] = White Leghorn, chick, in vivo, 50 μM

Structure (SMILES): Nc1nc2ncc(CNc3ccc(C(=O)N[C@@H](CCC(=O)O)C(=O)O)cc3)nc2c(=O)[nH]1 [FA, folic acid]
- Acadm expression [1]: returned the expression close to control levels
- % Normal Hearts [2, 4]: 55%
- Abnormal (number of embryos) [2, 4]: 5
- Normal (number of embryos) [2, 4]: 6
- % Normal Hearts ([2]; HH stage 3 +/4, Li 50 μM, inositol 280 mM, listed as FA only): 55%
- heart development (MF20) ([2]; in vivo): normal heart development
- ORO neutral lipid localization in the placenta [3]: more normal organization of labyrinth

Structure (SMILES): N[C@H]1CCSC1=O [HCy, L-homocysteine thiolactone hydrochloride]
- Acadm/Acadl gene expression ([1]; E7.5, versus control embryos, FA from morning after conception): slightly down-regulated
- Acadm expression [1]: upregulation
- Dead, Frequency [2, 5]: 6
- Dead, Percent [2, 5]: 5.6%
- Abnormal (number of embryos) [2, 4]: 100
- Normal (number of embryos) [2, 4]: 28
- % Normal Hearts ([2]; HH stage 3 +/4, Li 50 μM, inositol 280 mM, hydrochloride): 22%
- Abnormal (number of embryos) ([2]; HH stage 5): 50
- Normal (number of embryos) ([2]; HH stage 5): 24
- % Normal Hearts ([2]; HH stage 5, hydrochloride): 32%
- minimal teratogenic dose ([2]; White Leghorn, chick, in vivo): 50 µM
- Cardiabificla, Frequency [2, 6]: 11
- Cardiabificla, Percent [2, 6]: 10.2%
- Delayed development, Frequency [2, 6]: 2
- Delayed development, Percent [2, 6]: 1.9%
- Heart above head, Frequency [2, 6]: 18
- Heart above head, Percent [2, 6]: 16.7%
- Heart close midline, Frequency [2, 6]: 15
- Heart close midline, Percent [2, 6]: 13.9%
- Left looping, Frequency [2, 6]: 11
- Left looping, Percent [2, 6]: 10.2%
- Tubular heart, Frequency [2, 6]: 3
- Tubular heart, Percent [2, 6]: 2.8%
- Very abnormal (or no hearts), Frequency [2, 6]: 18
- Very abnormal (or no hearts), Percent [2, 6]: 16.7%
- Wide heart, Frequency [2, 6]: 24
- Wide heart, Percent [2, 6]: 22.2%
- development after exposure at HH stages 6 and 7 ([2]; in vivo): normal development
- ORO staining of neutral lipids in the heart [3]: did not alter ORO staining in the trabeculae
- ORO neutral lipid localization in the placenta [3]: patch-like neutral lipid localization

From patent publication US9308210B2, “Method for modulating canonical Wnt pathway using folate and inositol” (University of South Florida, priority 2009, dated 2016)
